From patent publication US20150004631A1, “Plasmodium falciparum HLA class I restricted T-cell epitopes” (priority 2013, published 2015)
No end group written: not given here.

Experiments:
Assay type in all cases: cell-based, human
PBMC [1] = test: ELISpot IFN-γ assay, PBMC of Ad5-PfCA immunized volunteers (Gp1); settings: for ELISpot activity of 15 mer peptide: v005, 1 month PBMC
Experimental: […] In these studies, IFN-γ activity was measured in response to exposure to the peptide pools. The assays were conducted essentially as described by Wang, et al., Proc. Natl. Acad. Sci. (U.S.A.), 98: 10817-22.
The stimulation of circulating antigen-specific T cell lymphocytes was evaluated by measurement of γ-IFN induction by ELISPOT. The ELISpot assay was conducted using thawed cryopreserved PBMC at 200K cells per well. Pre-challenge cells were taken at day 21 and day 22 post AdPfCA vaccination. Cells were suspended in […] complete medium and were stimulated with AMA1 peptides suspended in […] of complete medium. Peptide concentrations used in assays was 10 μg/ml of each peptide tested. Cultures were incubated for 36 h at 37° C., 5% CO2. Depending on availability of cells, each PBMC sample was assayed in duplicate, triplicate, or quadruplicate and the number of IFN-γ-secreting cells recognized as spot-forming cells (SFC) was enumerated using an automated ELISpot reader. In duplicate assays, all values were used in analysis. For triplicate or quadruplicate assays, outliers were rejected if any single value contributed more than 50% of the standard deviation of the triplicate (or quadruplicate) and if its value was three-fold greater or less than the average of the remaining two (or three) values. The mean spot forming cells (SFCs) obtained in negative control wells were subtracted from the value of each test well from the same sample. Negative counts generated by this background subtraction were converted to zero. The mean spot number of the test sample was then calculated and expressed as SFC/million PBMCs. Values obtained with pre-vaccinated samples were subtracted from the post-vaccination values.

CD4+ and CD8+ T cells = test: Intracellular cytokine staining (ICS) of PBMC; settings: for CD8^+ T cell IFN-γ response in ICS: HLA-matched volunteers, compared with parent peptide pool, FIG. 1 upper panel; for multifunctional CD8^+ T cell responses in ICS: v008 and v012, any two of IFN-γ, IL-2, TNF-α, FIG. 1 lower panel
Experimental: ICS was performed on PBMCs with costimulatory antibodies anti-CD28 and […] (obtained from BD Bioscience™, San Jose, Calif.). The peptides were used at the same concentrations as in ELISpot assays. Stimulants were added t cells and incubated at 37° C. with 5% CO2 for 2 hr. Golgi Plug™ (Brefeldin A) (BD Bioscience™, San Jose, Calif.) was added at a final concentration of 0.6 μL/mL and incubated at 37° C. with 5% CO2 overnight. Cells were stained with anti-CD3 (Alexa Fluor 700™), anti-CD4 (PerCP™), and anti-CD8 Pacific Blue™ (obtained from BD Bioscience™, San Jose, Calif.). and 1 μg/mL of live/dead fixable blue dye, incubated and washed. Cells were permeabilized with Cytofix/Cytoperm™ solution (obtained from BD Bioscience™, San Jose, Calif.), incubated and washed. Cells were stained intracellularly with anti-CD3 (Alexa Fluor 700™), anti-CD4 (PerCP™), and anti-CD8 Pacific Blue™, anti-IFN-γ FITC, anti-TNF PE, and anti-IL2 APC, incubated and washed. Cells were resuspended and the entire available sample was acquired by flowcytometry. The gating strategy included progressively measuring total cells; viable cells only; lymphocytes; T cells; CD4^+ CD8^+ populations; and a specific cell type expressing a specific cytokine. Histograms were used to determine the total production of IFN-γ, IL2, and TNF for the CD4^+ and CD8^+ populations. Boolean gates were used to determine cells producing combinations of cytokines.
In these studies, T cells containing IFN-γ, IL2, or TNFα, were gated into different subsets: IFN-γ+, IL2+, TNFα−; IFN-γ+, IL2−, TNFα+; IFN-γ+, IL2+, TNFα+; or IFN-γ+, IL2−, TNFα− T cells, and stimulated with the predicted epitopes and their parent peptide pool. The frequency of CD8^+ T cells producing total IFN-γ was far greater than CD4^+ T cell responses (FIG. 1, upper panel), which were extremely low.

[2] = system: CD4+ or CD8+ T cell depleted PBMC; test: ELISpot IFN-γ assay after CD4+ or CD8+ T cell depletion of PBMC (Example 1); settings: versus control depletion
Experimental: PBMC population depletion was conducted using anti-human CD4+ and anti-CD8^+ coated Dynabeads™ M-450 (Dynal, Great Neck, N.Y.) following the manufacturer's instructions. Mock depletion was done with Dynabeads coated with Sheep anti-mouse IgG. Flow cytometry confirmed that T-cell subset depletions were >99% in all experiments. The data is presented as the % effect (decrease) in activity after T cell subset depletion.
Finally, we wanted to confirm that indeed the responses to AMA14e were mediated by CD8^+ T cells. We compared activity to AMA14e in ELISpot depletion assays and ICS CD4^+ or CD8^+ T cell IFN-γ assays with Ap1-12 and recombinant AMA1 protein with v001 and v005 (FIG. 3). CD8^+ T cell depletion reduced ELISpot activity to AMA14e by about 85% in v001 and 95% in v005.

PBMC [3] = test: ELISpot IFN-γ assay, PBMC of AdPfCA / DNA prime-AdPfCA boost volunteers (Example 2); settings: minimal epitope contained in Ap10; primarily CD8^+
Excerpt: To more clearly define immunological active regions of AMA1, PBMCs were isolated from AMA1 immunized volunteers. Two groups of volunteers, i.e., Gp 1 (from example 1, above) and Gp2, received 2×10^10 particle units of AdPfCA (NMRC-M3V-Ad-PfCA, NMRC+Multi-antigen Multi-stage, Malaria Vaccine+Adenovector+P. falciparum CSP & AMA1 antigens). The vaccine is a combination of two separate recombinant Ad5 constructs, one expressing full length CSP and the other expressing full length apical membrane antigen 1 (AMA1). AdPfCA expressed the AMA1 regions A1 through A12. Twenty-eight (28) days later, PBMC's were collected.
In a third group (termed preCh in FIG. 7 and FIG. 8), fifteen volunteers were primed with three doses (2 mg/dose) with one month between doses. Sixteen weeks after the final DNA priming dose, each volunteer received 2×10^10 particle units of AdPfCA. PBMC's were collected on day 22-23 after receiving AdPfCA. […]
The stimulation of circulating antigen-specific T cell lymphocytes was evaluated by measurement of γ-IFN induction by ELISPOT. […] Depending on availability of cells, each PBMC sample was assayed in duplicate, triplicate, or quadruplicate and the number of IFN-γ-secreting cells recognized as spot-forming cells (SFC) was enumerated using an automated ELISpot reader. […] The mean spot number of the test sample was then calculated and expressed as SFC/million PBMCs. […]

CEIFNVKPTCLINNS [Ap8-12]
IFN-γ ELISpot activity of individual 15 mer peptide (PBMC [1]; Volunteer 005): 127 SFC/10^6

CNKLVFELSASDQPK [Ap7-7]
IFN-γ ELISpot activity of individual 15 mer peptide (PBMC [1]; Volunteer 001): 77 SFC/10^6

EDIPHVNEFPAIDLF [Ap7-3]
IFN-γ ELISpot activity of individual 15 mer peptide (PBMC [1]; Volunteer 001): 139 SFC/10^6

EMRHFYKDNKYVKNL [Ap4-11]
IFN-γ ELISpot activity of individual 15 mer peptide (PBMC [1]; Volunteer 005): 65 SFC/10^6 | ELISpot activity of 15 mer peptide (PBMC [1]): 65 sfc/m

ETQKCEIFNV (listed as Plasmodium falciparum) [Ep # 10]
CD8^+ T cell IFN-γ response in ICS (CD4+ and CD8+ T cells): very weak CD8^+ IFN-γ responses | multifunctional CD8^+ T cell responses in ICS (CD4+ and CD8+ T cells): did not appear to induce multifunctional responses

ETQKCEIFNVKPTCL [Ap8-11]
IFN-γ ELISpot activity of individual 15 mer peptide (PBMC [1]; Volunteer 001): 48 SFC/10^6 | IFN-γ ELISpot activity of individual 15 mer peptide (PBMC [1]; Volunteer 005): 218 SFC/10^6 | IFN-γ ELISpot activity of individual 15 mer peptide (PBMC [1]; Volunteer 008): 48 SFC/10^6

FKADRYKSHGKGYNW [Ap8-6]
IFN-γ ELISpot activity of individual 15 mer peptide (PBMC [1]; Volunteer 012): 143 SFC/10^6

HPKEYEYPL (listed as Plasmodium falciparum) [Ep # 9]
CD8^+ T cell IFN-γ response in ICS (CD4+ and CD8+ T cells): equal or more CD8^+ IFN-γ than the parent peptide pool

HVNEFPAIDLFECNK [Ap7-4]
IFN-γ ELISpot activity of individual 15 mer peptide (PBMC [1]; Volunteer 001): 96 SFC/10^6

INEHREHPKEYEYPL [Ap1-11]
IFN-γ ELISpot activity of individual 15 mer peptide (PBMC [1]; Volunteer 002): 180 SFC/10^6 | IFN-γ ELISpot activity of individual 15 mer peptide (PBMC [1]; Volunteer 005): 322 SFC/10^6 | % effect on ELISpot activity, CD4 dep ([2]; V002): −18% | % effect on ELISpot activity, CD8 dep ([2]; V002): −94% | % effect on ELISpot activity, CD4 dep ([2]; V005): −37% | % effect on ELISpot activity, CD8 dep ([2]; V005): −100%

KEYEYPLHQEHTYQQ [Ap1-13]
IFN-γ ELISpot activity of individual 15 mer peptide (PBMC [1]; Volunteer 001): 42 SFC/10^6 | % effect on ELISpot activity, CD4 dep ([2]; V001): +133% | % effect on ELISpot activity, CD8 dep ([2]; V001): −76%

LLSAFEFTYMINFGR [Ap1-3]
IFN-γ ELISpot activity of individual 15 mer peptide (PBMC [1]; Volunteer 001): 48 SFC/10^6 | % effect on ELISpot activity, CD4 dep ([2]; V001): −32% | % effect on ELISpot activity, CD8 dep ([2]; V001): −56%

LMSPMTLDEMRHFYK [Ap4-9]
IFN-γ ELISpot activity of individual 15 mer peptide (PBMC [1]; Volunteer 002): 189 SFC/10^6 | IFN-γ ELISpot activity of individual 15 mer peptide (PBMC [1]; Volunteer 005): 395 SFC/10^6 | % effect on ELISpot activity, CD4 dep ([2]; V005): −32% | % effect on ELISpot activity, CD8 dep ([2]; V005): −100%

MTLDEMRHFYKDNKY [Ap4-10]
IFN-γ ELISpot activity of individual 15 mer peptide (PBMC [1]; Volunteer 002): 82 SFC/10^6 | IFN-γ ELISpot activity of individual 15 mer peptide (PBMC [1]; Volunteer 005): 118 SFC/10^6

NEFPAIDLF (listed as Plasmodium falciparum) [Ep # 2]
CD8^+ T cell IFN-γ response in ICS (CD4+ and CD8+ T cells): equal or more CD8^+ IFN-γ than the parent peptide pool

NEVVVKEEY [Ep # 1, NEVVVKEEY]
CD8^+ T cell IFN-γ response in ICS (CD4+ and CD8+ T cells): equal or more CD8^+ IFN-γ than the parent peptide pool

NQYLKDGGFAFPPTE [Ap4-5]
IFN-γ ELISpot activity of individual 15 mer peptide (PBMC [1]; Volunteer 005): 50 SFC/10^6 | ELISpot activity of 15 mer peptide (PBMC [1]): 50 sfc/m

NSTCRFFVCK (listed as Plasmodium falciparum)
T-cell response (IFN-γ SFC) (PBMC [3]): significant T-cell response

QNSDVYRPINEHREH [Ap1-9]
IFN-γ ELISpot activity of individual 15 mer peptide (PBMC [1]; Volunteer 001): 48 SFC/10^6

REHPKEYEYPLHQEH [Ap1-12]
IFN-γ ELISpot activity of individual 15 mer peptide (PBMC [1]; Volunteer 002): 66 SFC/10^6 | IFN-γ ELISpot activity of individual 15 mer peptide (PBMC [1]; Volunteer 005): 118 SFC/10^6

RYKSHGKGY [Ep # 14, RYKSHGKGY]
ELISpot 7m, predicted 8-10 mer epitope (PBMC [1]; Vol 012, PBMC 7 months): 11 | recognition of minimal epitope in ELISpot (PBMC [1]; v012, criteria for positive 40 SFC/million): negative | CD8^+ T cell IFN-γ response in ICS (CD4+ and CD8+ T cells): very weak CD8^+ IFN-γ responses | multifunctional CD8^+ T cell responses in ICS (CD4+ and CD8+ T cells): did not appear to induce multifunctional responses

TLDEMRHFY [Ep # 8]
ELISpot 4m, predicted 8-10 mer epitope (PBMC [1]; Vol 002, PBMC 4 months): 51 | CD8^+ T cell IFN-γ response in ICS (CD4+ and CD8+ T cells): equal or more CD8^+ IFN-γ than the parent peptide pool

TSNNEVVVKEEYKDE [Ap10-13]
IFN-γ ELISpot activity of individual 15 mer peptide (PBMC [1]; Volunteer 001): 250 SFC/10^6 | IFN-γ ELISpot activity of individual 15 mer peptide (PBMC [1]; Volunteer 012): 233 SFC/10^6 | % effect on ELISpot activity, CD4 dep ([2]; V001): +148% | % effect on ELISpot activity, CD8 dep ([2]; V001): −88% | % effect on ELISpot activity, CD4 dep ([2]; V012): +14% | % effect on ELISpot activity, CD8 dep ([2]; V012): −100%
